4 molecules from patent publication US20260305608A1, “MIXTURE COMBINATIONS FOR CROP PROTECTION” (ADAMA MAKHTESHIM LTD., priority 2023, published 2026) can be followed below.

The test system of assay [1] is S. littoralis. Put plainly: Synergistic activity against S. littoralis, 2 days after larvae exposition (% control; Colby). In kind it is in vivo, Spodoptera littoralis. The method, then: (§1) A mixture combination were prepared by thoroughly mixing Tau-fluvalinate (weight %) with a crop protection chemical compound such as Flupyrimin, Isocycloseram, Methoxyfenozide and Garlic extract (weight %).
(§2) Different concentrations of each of the active ingredients may be applied to different species of insects. The percent controls are determined sometime after treatment.
(§3) A synergistic effect exists whenever the action of a combination of active ingredients is greater than the sum of the action of each of the ingredients alone. Therefore, a synergistic combination is a combination of active ingredients having an action that is greater than the sum of the action of each active ingredient alone, and a synergistically effective amount is an effective amount of a synergistic combination.
(§4) Colby's method is used to determine if synergy exists for a combination of active ingredients. According to Colby, the expected action (E) of active ingredients A+B is:
(§5) E=A+B−(AB/100) • where E=expected efficacy, A and B=the efficacy of two active ingredients A and B at a given dose.
(§6) When the percentage of control observed (O) for the combination is greater than the expected (E) percentage, there is a synergistic effect. The synergism ratio (R) is calculated as the ratio between the […].
(§7) The insecticidal compounds A (Tau fluvalinate) and B (mix partner) are formulated as equivalent compositions to eliminate the effects of differing formulation inerts on biological activity. Efficacy of the insecticidal compositions is evaluated with reference to a scale of 0% to 100% in comparison with untreated control plots. 0 means no damage and 100 means complete destruction of the harmful pests.
(§8) The experiments were conducted by applying either by synthesis/extraction or commercially available formulations of Tau fluvalinate and other mixture partners, alone or with their tank-mixed compositions with the same weight ratio. The compositions were diluted with water or some other suitable solvents to the stated concentration of the active compounds.
(§9) Each formulation with active ingredient is diluted with water or other suitable solvent(s) to the ppm (parts per million) level and biological efficacy trials on pests are conducted.

Assay [2] has as its system S. littoralis. Put plainly: Synergistic activity against S. littoralis, 3 days after larvae exposition (% control; Colby). In kind it is in vivo, Spodoptera littoralis. The method, then:
as §1, §2, §3, §4, §5, §6, §7, §8, §9

The test system of assay [3] is B. tabaci. The assay can be described thus: Synergistic activity against B. tabaci, 3 days after nymph exposition (% control; Colby). It is filed as in vivo, Bemisia tabaci. The method, then:
as §1, §2, §3, §4, §5, §6, §7, §8, §9

As for `CC(C)C(Nc1ccc(C(F)(F)F)cc1Cl)C(=O)OC(C#N)c1cccc(Oc2ccccc2)c1` (mixture of isomers) [Tau- Fluvalinate, (RS)-α-Cyano-3-phenoxybenzyl N-(2-chloro-α,α,α-trifluoro-p-tolyl)-D-valinate], the “Observed % control (O)” value in assay [1] (Table 1B, 10 ppm) came out at 43%; in assay [1] (Table 4B, 8 ppm), 45%; in assay [1] (Table 4B, 16 ppm), 62.5%; in assay [2] (Table 3, 0.2 ppm), 2.5%; in assay [2] (Table 3, 2 ppm) it was 22.5%; in assay [2] (Table 3, 10 ppm), 67.5%. Moreover, the “Observed % control (O)” value in assay [3] (Table 1A, 0.1 ppm) worked out at 14%; in assay [3] (Table 2, 20 ppm), 28.1%; in assay [3] (Table 4A, 0.2 ppm), 10.4%.
Consider `O=C(/N=c1\ccccn1Cc1ccc(Cl)nc1)C(F)(F)F` [Flupyrimin], for which the “Observed % control (O)” value is listed as 0% in assay [1] (Table 1B, 1 ppm); 0% in assay [1] (Table 1B, 10 ppm); 18% in assay [1] (Table 1B, 100 ppm).
Consider `COc1cccc(C(=O)NN(C(=O)c2cc(C)cc(C)c2)C(C)(C)C)c1C` [Methoxyfenozide], for which the “Observed % control (O)” value in assay [2] (Table 3, 1 ppm) came out at 52.5%; in assay [2] (Table 3, 2 ppm), 70%.
As to `CCN1OC[C@@H](NC(=O)c2ccc(C3=NO[C@@](c4cc(Cl)c(F)c(Cl)c4)(C(F)(F)F)C3)cc2C)C1=O` [Isocycloseram], the “Observed % control (O)” value in assay [1] (Table 4B, 8 ppm) was found to be 12.2%; in assay [3] (Table 4A, 0.2 ppm) it was 25.5%.
